Laboratory results reported in ChEMBL document CHEMBL3259599, “Novel colchicine-site binders with a cyclohexanedione scaffold identified through a ligand-based virtual screening approach” (J Med Chem, 2014).
Active and inactive are the calls of the source. The rule behind the calls is not given here.

Columns and labels:
[1] = (§1) Metabolic stability in 10% human serum assessed as compound remaining at 100 uM measured after 3 hrs by HPLC analysis; format: ADME; settings: 10% human serum, read-out: Stability
[2] = Antiproliferative activity against HMEC1 after 4 days by coulter counter analysis; format: functional; settings: Homo sapiens, HMEC-1, 96 h
HMEC-1 [3] = assay: Antivascular activity in HMEC1 cells assessed as destruction of cord like structure at 3 uM after 90 mins by matrigel assay; format: functional, cell-based; settings: Homo sapiens
HeLa = assay: Antiproliferative activity against human HeLa cells after 4 days by coulter counter analysis; format: functional, cell-based; settings: 96 h
[4] = (§2) Metabolic stability in 50% mouse liver extract assessed as compound remaining at 100 uM measured after 3 hrs by HPLC analysis; format: ADME, tissue-based; settings: 50% mouse liver extract, read-out: Stability
CCRF-CEM = assay: Antiproliferative activity against human CEM cells after 48 to 96 hrs by coulter counter analysis; format: functional, cell-based
[5] = Antiproliferative activity against MBEC after 3 days by coulter counter analysis; format: functional, Mus musculus
Tubulin (Homo sapiens) = Tubulin (Homo sapiens) (UniProt P68371+Q9H4B7+P0DPH7+P68366+Q13509+Q71U36+P04350+Q3ZCM7+P07437+P68363+Q9BQE3+Q6PEY2+Q13885+Q9BVA1+Q9BUF5); assay: Binding affinity to tubulin in human MDA-MB-231 cells assessed as inhibition of mitotic spindle formation at 1 uM after 8 hrs by DAPI staining-based fluorescence microscopic analysis; format: cell-based
Tubulin (Bos taurus) [6] = biological target: T1, Tubulin (Bos taurus) (UniProt Q6B856+Q862L2+Q862F3); assay: Displacement of MTC from calf brain tubulin colchicine binding site at 20 uM by fluorescence spectroscopic analysis
HMEC-1 [7] = assay: Induction of apoptosis in HMEC1 at 0.3 uM after 24 hrs by propidium iodide staining-based flow cytometric analysis; format: functional; settings: Homo sapiens
MDA-MB-231 [8] = assay: Antiinvasive activity against human MDA-MB-231 cells at 0.4 uM after 17 hrs by Transwell assay; format: functional, cell-based
Tubulin (Bos taurus) [9] = biological target: T1, Tubulin (Bos taurus); assay: Displacement of R-PT from calf brain tubulin at 25 degC by fluorescence spectroscopic analysis
MDA-MB-231 [10] = assay: Competitive binding affinity to beta-tubulin in human MDA-MB-231 cells assessed as inhibition of protein-N/N'-ethylene-bis(iodoacetamide) adduct formation at 10 uM preincubated for 16 hrs followed by N/N'-ethylene-bis(iodoacetamide) formation measured after 1.5 hrs by Western blot analysis; format: cell-based
[11] = Cell cycle arrest in HMEC1 cells assessed as accumulation at G2/M phase at 1 uM after 24 hrs by propidium iodide staining-based flow cytometric analysis; format: functional; settings: Homo sapiens, HMEC-1
L1210 = assay: Antiproliferative activity against mouse L1210 cells after 48 to 96 hrs by coulter counter analysis; format: functional, cell-based
[12] = Antiproliferative activity against BAEC after 3 days by coulter counter analysis; format: functional; settings: Bos taurus, 72 h
[13] = Cell cycle arrest in HMEC1 cells assessed as accumulation at subG1 phase at 1 uM after 24 hrs by propidium iodide staining-based flow cytometric analysis; format: functional; settings: Homo sapiens, HMEC-1
MDA-MB-231 [14] = assay: Antiproliferative activity against human MDA-MB-231 cells at 0.4 uM after 17 hrs; format: functional, cell-based
MDA-MB-231 [15] = assay: Antimigratory activity against human MDA-MB-231 cells at 0.4 uM after 17 hrs by Transwell assay; format: functional, cell-based
Serum = assay: as §1; format: ADME; settings: serum, 3 h, 100 µM
Liver = assay: as §2; format: ADME, tissue-based; settings: 3 h, 100 µM
MDA-MB-231 [16] = assay: Antiinvasive activity against human MDA-MB-231 cells at 2 to 10 uM after 17 hrs by Transwell assay; format: functional, cell-based
MDA-MB-231 [17] = assay: Antimigratory activity against human MDA-MB-231 cells at 2 to 10 uM after 17 hrs by Transwell assay; format: functional, cell-based

In the case of `COc1ccccc1NC(C)=C1C(=O)CC(c2ccccc2)CC1=O` (stereo not given), the remaining at 3 h, 100 µM [1] is reported as 70%, the IC50 [2] is reported as 0.09 µM and the Activity (HMEC-1 [3]) is reported as “Active”. The IC50 (HeLa) was 0.18 µM, the remaining at 3 h, 100 µM [4] was over 90% and the IC50 (CCRF-CEM) was 0.18 µM. For the same compound, the IC50 [5] was 0.12 µM, the inhibition (Tubulin (Homo sapiens)) was “Active” and the inhibition (Tubulin (Bos taurus) [6]) was “Active”. For the same compound, the Activity (HMEC-1 [7]) was “Active”, the inhibition (MDA-MB-231 [8]) was “Active” and the Ka (Tubulin (Bos taurus) [9]) was 9.6 ×10⁶ /M. For the same compound, the inhibition (MDA-MB-231 [10]) was “Active”, the Activity [11] was “Active” and the IC50 (L1210) was 0.16 µM. For the same compound, the IC50 [12] was 0.09 µM, the Activity [13] was “Active” and the Activity (MDA-MB-231 [14]) was “Active”. For the same compound, the inhibition (MDA-MB-231 [15]) was “Active”.
For `CCC(Nc1ccccc1O)=C1C(=O)CC(c2ccccc2)CC1=O` (stereo not given), the Stability (Serum) was “Unstable”, the IC50 [2] was 22 µM and the IC50 (HeLa) was 11 µM. For the same compound, the Stability (Liver) was “Unstable”, the IC50 (CCRF-CEM) was 15 µM and the IC50 [5] was 13 µM. The inhibition (MDA-MB-231 [16]) was “inactive”, the inhibition (Tubulin (Bos taurus) [6]) was “Active” and the inhibition (MDA-MB-231 [17]) was “inactive”. It also gave an IC50 (L1210) of 13 µM and an IC50 [12] of 35 µM.
